Here are results for ten molecules from patent US20160176867A1, “MODIFIED BET-PROTEIN-INHIBITING DIHYDROQUINOXALINONES AND DIHYDROPYRIDOPYRAZINONES” (BAYER PHARMA AKTIENGESELLSCHAFT, priority 2013, published 2016).

For orientation: IC50 means the point on the concentration scale where inhibition reaches its midpoint.

One assay has as its system CHL-1 cells. Description: Cell proliferation assay (alamarBlue), CHL-1. It is filed as cell-based. To be noted: Homo sapiens; CHL-1 (melanoma, BRAF wild-type), 96 hours. The method, then: In accordance with the invention, the ability of the substances to inhibit cell proliferation was determined. Cell viability was determined by means of the alamarBlue® reagent (Invitrogen) in a Victor X3 Multilabel Reader (Perkin Elmer). The excitation wavelength was 530 nm and the emission wavelength […].
The CHL-1 cells (ATCC, CRL-9446) were sown at a concentration of 1000 cells/well in 100 μl of growth medium (DMEM with glutamine, 10% FCS) on 96-well microtitre plates.
After overnight incubation at 37° C., the fluorescence values were determined (CI values). Then the plates were treated with various substance dilutions (1E-5 M, 3E-6 M, 1E-6 M, 3E-7 M, 1E-7 M, 3E-8 M, 1E-8 M) and incubated at 37° C. over 96 hours (MOLM-13, B16F10, CHL-1 cells) or 120 hours (MOLP-8 cells). Subsequently, the fluorescence values were determined (CO values). For the data analysis, the CI values were subtracted from the CO values and the results were compared between cells which had been treated with various dilutions of the substance or only with buffer solution. The IC50 values (substance concentration needed for 50% inhibition of cell proliferation) were calculated therefrom.
In general terms: Alamar Blue is a resazurin reagent that responds to reducing activity.

For assay [1], the target named is T1, BRD4 bromo domain 1 [BRD4(1)] (Homo sapiens, UniProt O60885).
T1 construct: N-terminally His6-tagged BRD4(1) (amino acids 67-152); made in house; host or cells: E. coli
Description: BRD4/acetylated peptide H4 binding assay (TR-FRET), BRD4 bromo domain 1. To be noted: inhibition of BRD4(1)/Ac-H4 peptide interaction. The gist of the method:
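TR-FRET (665/620 nm ratio) measuring displacement of biotinylated tetra-acetylated H4 peptide from His6-BRD4(1) (aa 67-152, E. coli; typically 10 nM) at pH 7.5. Compound (11 concentrations, 0.1 nM–20 μM, duplicates) was preincubated 10 min at 22°C, then 1 h at 22°C and ≥3 h at 4°C; IC50 from 4-parameter fit normalized to DMSO and no-BRD4 controls.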

On to `COCCN1c2nc(Nc3cccc(S(=O)(=O)N4CCOCC4)c3)ccc2N(C)C(=O)C1C` (racemic) [Example 49, 4-(2-methoxyethyl)-1,3-dimethyl-6-{[3-(morpholin-4-ylsulphonyl)phenyl]amino}-3,4-dihydropyrido[2,3-b]pyrazin-2(1H)-one], for which the IC50 in the assay on CHL-1 cells turned out to be 153 nM; in assay [1] it was 112 nM.

As to `COCCN1c2nc(Nc3cccc(S(=O)(=O)N4CCN(C)CC4)c3)ccc2N(C)C(=O)C1C` (racemic) [Example 53, 4-(2-methoxyethyl)-1,3-dimethyl-6-({3-[(4-methylpiperazin-1-yl)sulphonyl]phenyl}-amino)-3,4-dihydropyrido-[2,3-b]pyrazin-2(1H)-one], the figures for the concentration for half-maximal inhibition (IC50) (in the assay on CHL-1 cells; in assay [1]) were 179 nM and 151 nM, respectively.

On to `COCCN1c2nc(Nc3cccc(S(=O)(=O)N4CCOCC4)c3)ccc2N(C)C(=O)[C@H]1C` (stereo in doubt) [Example 111, (3R)-4-(2-methoxyethyl)-1,3-dimethyl-6-{[3-(morpholin-4-ylsulphonyl)phenyl]amino}-3,4-dihydropyrido[2,3-b]pyrazin-2(1H)-one], for which the values for the IC50 (with CHL-1 cells; in assay [1]) were 85 nM and 75 nM, respectively.

For the molecule `COc1ccc(C(=O)NC2CCN(C)CC2)cc1Nc1ccc2c(n1)N(C1CCOCC1)[C@H](C)C(=O)N2C` [Example 16, 3-{[(3R)-1,3-Dimethyl-2-oxo-4-(tetrahydro-2H-pyran-4-yl)-1,2,3,4-tetrahydropyrido[2,3-b]pyrazin-6-yl]amino}-4-methoxy-N-(1-methylpiperidin-4-yl)benzamide], the IC50 in the assay on CHL-1 cells was found to be 346 nM; in assay [1], 234 nM.

As to `CCNS(=O)(=O)c1cccc(Nc2ccc3c(n2)N(C2CCOCC2)[C@H](C)C(=O)N3C)c1` [Example 23, 3-{[(3R)-1,3-dimethyl-2-oxo-4-(tetrahydro-2H-pyran-4-yl)-1,2,3,4-tetrahydropyrido[2,3-b]pyrazin-6-yl]amino}-N-ethylbenzenesulphonamide], the IC50 in the assay on CHL-1 cells was determined as 50 nM; in assay [1] it was 15 nM.

As to `C[C@@H]1C(=O)N(C)c2ccc(Nc3cccc(S(=O)(=O)N4CCCC4)c3)nc2N1C1CCN(C)CC1` [Example 24, (3R)-1,3-Dimethyl-4-(1-methylpiperidin-4-yl)-6-{[3-(pyrrolidin-1-ylsulphonyl)phenyl]amino}-3,4-dihydropyrido[2,3-b]pyrazin-2(1H)-one], the IC50 with CHL-1 cells turned out to be 13 nM; in assay [1], 16 nM.

As for `COc1ccc(S(=O)(=O)N2CCOCC2)cc1Nc1ccc2c(n1)N(C1CCN(C)CC1)[C@H](C)C(=O)N2C` [Example 25, (3R)-6-{[2-Methoxy-5-(morpholin-4-ylsulphonyl)phenyl]amino}-1,3-dimethyl-4-(1-methylpiperidin-4-yl)-3,4-dihydropyrido[2,3-b]pyrazin-2(1H)-one], the IC50 (in the assay with CHL-1 cells; in assay [1]) was 16 nM each time.

For `C[C@@H]1C(=O)N(C)c2ccc(Nc3cccc(S(=O)(=O)NC4CC4)c3)nc2N1C1CCOCC1` [Example 26, N-Cyclopropyl-3-{[(3R)-1,3-dimethyl-2-oxo-4-(tetrahydro-2H-pyran-4-yl)-1,2,3,4-tetrahydropyrido[2,3-b]pyrazin-6-yl]amino}benzenesulphonamide], the IC50 in the assay on CHL-1 cells came to 31 nM; in assay [1], 17 nM.

For the molecule `C[C@@H]1C(=O)N(C)c2ccc(Nc3cccc(S(=O)(=O)N4CCCC4)c3)nc2N1C1CCOCC1` [Example 27, (3R)-1,3-Dimethyl-6-{[3-(pyrrolidin-1-ylsulphonyl)phenyl]amino}-4-(tetrahydro-2H-pyran-4-yl)-3,4-dihydropyrido[2,3-b]pyrazin-2(1H)-one], the IC50 was 23 nM in the assay with CHL-1 cells and 17 nM in assay [1].

For the molecule `COc1ccc(S(=O)(=O)N2CCOCC2)cc1Nc1ccc2c(n1)N(C1CCOCC1)[C@H](C)C(=O)N2C` [Example 28, (3R)-6-{[2-Methoxy-5-(morpholin-4-ylsulphonyl)phenyl]amino}-1,3-dimethyl-4-(tetrahydro-2H-pyran-4-yl)-3,4-dihydropyrido[2,3-b]pyrazin-2(1H)-one], the IC50 was 14 nM in the assay with CHL-1 cells and 26 nM in assay [1].
